Data on eight compounds can be found in PubChem BioAssay (NCI).

“And” between values parts separate entries of the source, which are not always exact repeats. Identical values can stand only once.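 Growth conditions: 96-well plates. Treatment: test compound, 48 hours, 5 concentrations. Analysis: linear interpolation between bracketing concentrations; unreached endpoints set to highest concentration. GI50 = concentration required for 50% inhibition of growth. TGI: total growth inhibition.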 Where only a bound is given, the exact number is not on record here.

Test in all cases: DTP human tumour cell line panel, 48 h
In assay [1] the test system is SF-268 CNS.
Assay [2] deals with PC-3 prostate.
Assay [3] concerns SK-MEL-28 melanoma.
Assay [4] relates to MOLT-4 leukemia.
Assay [5] relates to CCRF-CEM leukemia.
In assay [6] the test system is SF-295 CNS.
For assay [7], the system named is NCI-H226 lung.
For assay [8], the system named is ACHN renal.
Assay [9] has as its system UACC-62 melanoma.
For assay [10], the system named is MDA-MB-231 breast.

As for `CN(/N=N/c1nc(OCc2ccccc2)c2[nH]cnc2n1)C(=O)N(C)/N=N/c1nc(OCc2ccccc2)c2[nH]cnc2n1`, the GI50 (commonly the concentration giving 50% growth inhibition) in [1] is 47.6 µM; in [2], 40.5 µM; in assay [3], over 100 µM; in [4], 53.1 µM; in assay [5] it was 49.6 µM; in [6] it was 32.4 µM. Also, the GI50 is 38.5 µM in assay [7], 31.3 µM in [8], 30.8 µM in assay [9] and 41.2 µM in assay [10]. The TGI in assay [1], in assay [2], in [3], in assay [4], in assay [5] and in assay [6] was over 100 µM in each case. For the same compound, the total growth inhibition concentration (TGI) in assay [7], in assay [8], in [9] and in assay [10] was over 100 µM in each case.
On to `COc1cc(-c2cn(-c3ccc(Cl)cc3)c(=O)[nH]2)cc(OC)c1OC`, for which the GI50 in assay [1] is over 100 µM; in assay [2] it was over 100 µM; in assay [3], over 100 µM; in assay [4], 0.0199 µM; in [5], over 100 µM; in assay [6], over 100 µM. In addition, the GI50 in assay [7], in [8], in assay [9] and in assay [10] was over 100 µM throughout. The TGI (commonly the concentration giving total growth inhibition) in assay [1] is over 100 µM; in assay [2] it was over 100 µM; in assay [3], over 100 µM; in [4], 8.86 µM; in assay [5], over 100 µM; in assay [6] it was over 100 µM. The TGI in [7], in [8], in assay [9] and in [10] was over 100 µM in each case.
In the case of `O=C(CNC(=O)c1cccc2ccccc12)Nc1ccccc1Oc1ccccc1`, the GI50 is 0.435 µM in assay [1]; 0.304 µM in assay [2]; 0.813 µM in [3]; 0.348 µM in assay [4]; 0.345 µM in [5]; 0.25 µM in assay [6]. The GI50 in assay [7] was 2.19 µM; in assay [8], 0.833 µM; in assay [9], 0.177 µM; in assay [10], 0.982 µM. Moreover, the TGI in assay [1], in [2], in assay [3], in assay [4], in [5] and in assay [6] was over 10 µM in each case. The TGI in assay [7], in [8], in assay [9] and in assay [10] was over 10 µM each time.
Turning to `Cc1cc2c(C(N)=O)cccc2n1-c1nc2c(c(NCc3ccccc3)n1)CCCN2`, the concentration for 50% growth inhibition (GI50) in [1] was 0.213 µM; in assay [2], 0.287 µM; in [3], 0.246 µM; in [4] it was 0.241 µM; in [5], 0.295 µM; in [6] it was 0.174 µM. The GI50 was 0.158 µM in [7], 0.236 µM in assay [8], 0.155 µM in assay [9] and 0.186 µM in assay [10]. Moreover, the concentration for total growth inhibition (TGI) in assay [1] was found to be 0.487 µM; in assay [2], 0.825 µM; in assay [3] it was 0.593 µM; in assay [4] it was 1.16 µM; in assay [5], 19.8 µM; in [6], 0.352 µM. Further, the TGI was found to be 0.332 µM in assay [7], 0.791 µM in [8], 0.33 µM in assay [9] and 0.394 µM in assay [10].
Regarding `CNC1NC(=O)c2ccccc2N1Cc1ccc(F)cc1` (centres undefined), the TGI in assay [1], in [2], in assay [3], in [4], in [5] and in [6] was over 100 µM each time. For the same compound, the TGI in assay [7], in assay [8], in assay [9] and in assay [10] was over 100 µM each time.
Consider `Cc1cc(N/N=C/c2nc(-c3ccccc3)oc2C)c2cc(Cl)ccc2n1`, for which the GI50 in assay [2] was 1.8 µM; in [3], 1.71 µM; in assay [4] it was 2.04 µM; in assay [6], 1.69 µM; in [7] it was 2.38 µM; in [8] it was 1.74 µM. In addition, the figures for the GI50 in [9] and in [10] were 1.7 µM and 1.85 µM, respectively. Further, the concentration for total growth inhibition (TGI) in [2] was found to be 3.55 µM; in [3], 3.16 µM; in assay [4], 4.54 µM; in assay [6], 3.2 µM; in assay [7] it was 6.88 µM; in assay [8], 3.14 µM. Further, the concentration for total growth inhibition (TGI) in [9] was found to be 3.36 µM; in assay [10], 3.69 µM.
With `Clc1cc(Cl)cc(N2N=C(c3cccc(Nc4ccncc4)c3)CC2c2ccc(Br)cc2)c1` (centres undefined), the GI50 was 1.76 µM in assay [1]; 1.66 µM in assay [2]; 1.83 µM in [3]; 1.95 µM in assay [4]; 3.02 µM in assay [5]; 1.79 µM in assay [6]. Also, the GI50 in [8] is 1.66 µM; in assay [9], 1.68 µM; in assay [10], 1.51 µM. Moreover, the concentration for total growth inhibition (TGI) in assay [1] was 3.58 µM; in assay [2] it was 3.31 µM; in assay [3], 3.37 µM; in assay [4], 4.44 µM; in assay [5], 31.2 µM; in [6], 3.2 µM. Moreover, the TGI in assay [8] amounted to 3.02 µM; in [9], 3.13 µM; in assay [10], 2.91 µM.
Turning to `CCOC(=O)C(Cc1c[nH]c2cc([N+](=O)[O-])ccc12)(NC(C)=O)C(=O)OCC`, the GI50 in assay [1] was 95.1 µM; in [3], over 1000 µM; in assay [4] it was 35.2 µM; in [6], 57.9 µM and 56.9 µM; in [7], over 769 µM; in assay [8] it was 178 µM. Also, the GI50 in [10] was 167 µM. Besides, the TGI in assay [1] is over 1000 µM; in [2] it was over 1000 µM; in [3], over 1000 µM; in assay [6], over 478 µM; in [7], over 1000 µM; in assay [8] it was over 1000 µM. Besides, the TGI in assay [9] was over 1000 µM; in assay [10], over 715 µM.
